Data taken from patent US20070191431A1, “2-Amino-5-piperidinylimidazolone compounds and use thereof for beta-secretase modulation” (Wyeth, priority 2005, published 2007).
Read-outs that look alike come from different tables or passages of the source.

Key:
human BACE1 = human BACE1 (Homo sapiens, UniProt P56817); experiment: BACE-1 fluorescent kinetic assay (Example 88); assay type: biochemical
Description: Evaluation of BACE-1 Binding Affinity of Test Compounds
Fluorescent Kinetic Assay
Dilution and mixing steps: total reaction volume: 100 μL
100 μM substrate dilution in 1× PBS was prepared, and
Fluorescence Readings: Readings at Aex 320 nm and Aem 420 nm are taken every 40 sec for 30 min at room temperature and the linear slope for substrate cleavage rate (vi) determined.

[1] = 10 nM enzyme, 25 μM substrate WABC-6, Na-Acetate pH 4.5, room temperature, read-out: BACE1 (IC50 μM)

human BACE1, sequence (P56817 46-501): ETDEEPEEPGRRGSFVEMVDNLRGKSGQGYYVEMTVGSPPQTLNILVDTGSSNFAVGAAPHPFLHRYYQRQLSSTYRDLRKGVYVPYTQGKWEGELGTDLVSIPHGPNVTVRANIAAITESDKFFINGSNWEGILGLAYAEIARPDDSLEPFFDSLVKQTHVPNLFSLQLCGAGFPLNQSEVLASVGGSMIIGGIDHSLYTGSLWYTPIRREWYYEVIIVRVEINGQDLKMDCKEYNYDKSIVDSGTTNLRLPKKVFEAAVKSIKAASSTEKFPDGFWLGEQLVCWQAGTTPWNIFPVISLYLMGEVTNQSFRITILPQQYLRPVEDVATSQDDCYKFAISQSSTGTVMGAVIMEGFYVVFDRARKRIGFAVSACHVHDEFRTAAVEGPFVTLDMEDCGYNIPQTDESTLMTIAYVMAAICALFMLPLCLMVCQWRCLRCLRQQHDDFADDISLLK

Structure (SMILES)	IC50 (human BACE1; [1]) [µM]	melting point	IC50 (human BACE1) [µM]
CN1C(=O)C(c2cccc(-c3ccccc3)c2)(C2CCN(C(=O)c3ccc(C#N)cc3)CC2)N=C1N (stereo not drawn) [Example 16, 4-({4-[2-amino-4-(1,1′-biphenyl-3-yl)-1-methyl-5-oxo-4,5-dihydro-1H -imidazol-4-yl]piperidin-1-yl}carbonyl)benzonitrile]	0.01 to 1	152 to 154 °C	–
CN1C(=O)C(c2cccc(-c3ccccc3)c2)(C2CCN(C(=O)c3cccc(C#N)c3)CC2)N=C1N (stereo not drawn) [Example 17, 3-({4-[2-amino-4-(1,1′-biphenyl-3-yl)-1-methyl-5-oxo-4,5-dihydro-1H -imidazol-4-yl]piperidin-1-yl}carbonyl)benzonitrile]	1.01 to 3	141 to 143 °C	–
CN1C(=O)C(c2cccc(-c3ccccc3)c2)(C2CCN(C(=O)c3ccccc3C#N)CC2)N=C1N (stereo not drawn) [Example 18, 2-({4-[2-amino4-(1,1′-biphenyl-3-yl)-1-methyl-5-oxo-4,5-dihydro-1H -imidazol-4-yl]piperidin-1-yl}carbonyl)benzonitrile]	> 3	144 to 146 °C	–
CCCc1ccc(C(=O)N2CCC(C3(c4cccc(-c5ccccc5)c4)N=C(N)N(C)C3=O)CC2)cc1 (stereo not drawn) [Example 21, 2-amino-5-(1,1′-biphenyl-3-yl)-3-methyl-5-[1-(4-propylbenzoyl)piperidin4-yl]-3,5-dihydro4H-imidazol-4-one]	0.01 to 1	133 to 135 °C	–
CCCOc1ccc(C(=O)N2CCC(C3(c4cccc(-c5ccccc5)c4)N=C(N)N(C)C3=O)CC2)cc1 (stereo not drawn) [Example 22, 2-amino-5-(1,1′-biphenyl-3-yl)-3-methyl-5-[1-(4-propoxybenzoyl)piperidin4-yl]-3,5-dihydro4H-imidazol-4-one]	0.01 to 1	131 to 133 °C	–
CN1C(=O)C(c2cccc(C3CCCCC3)c2)(C2CCN(C(=O)c3ccccc3)CC2)N=C1N (stereo not drawn) [Example 24, 2-amino-5-(1-benzoylpiperidin-4-yl)-5-(3-cyclohexylphenyl)-3-methyl-3,5-dihydr-4H -imidazol-4-one]	0.01 to 1	189 to 190 °C	–
CN1C(=O)C(c2ccccc2)(C2CCNCC2)N=C1N (stereo not drawn) [Example 27, 2-Amino-3-methyl-5-phenyl-5-piperidin-4-yl-3,5-dihydro-4H -imidazol-4-one]	–	269 to 271 °C	> 3
COCC(=O)Nc1cccc(C2(C3CCNCC3)N=C(N)N(C)C2=O)c1 (stereo not drawn) [Example 32, N-[3-(2-Amino-1-methyl-5-oxo4-piperldin-4-yl-4,5-dihydro-1H -imidazol-4-yl)phenYl]-2-methoxyacetamide]	> 3	170 to 174 °C	–
COCC(=O)Nc1cccc(C2(C3CCN(C(=O)c4ccc(OCc5ccccc5)cc4)CC3)N=C(N)N(C)C2=O)c1 (stereo not drawn) [Example 33]	0.01 to 1	149 to 152 °C	–
COCC(=O)Nc1cccc(C2(C3CCN(C(=O)c4ccc(O)cc4)CC3)N=C(N)N(C)C2=O)c1 (stereo not drawn) [Example 34, N-(3-{2-Amino-4-[1-(4-hydroxybenzoyl)piperidin4-yl]-1-methyl-5-oxo-4,5-dihydro-1H-imidazol-4-yl}phenyl)-2-methoxyacetamide]	0.01 to 1	184 to 187 °C	–
COCC(=O)Nc1cccc(C2(C3CCN(C(=O)c4ccc(C(=O)OC)cc4)CC3)N=C(N)N(C)C2=O)c1 (stereo not drawn) [Example 35, Methyl 4-{[4-(2-amino-4-{3-[(methoxyacetyl)amino]phenyl}-1-methyl-5-oxo-4,5-dihydro-1H-imidazol-4-yl)piperidin-1-yl]carbonyl}benzoate]	0.01 to 1	161 to 163 °C	–
COCC(=O)Nc1cccc(C2(C3CCN(C(=O)c4ccc(C(=O)[O-])cc4)CC3)N=C(N)N(C)C2=O)c1.[Na+] (stereo not drawn) [Example 36, Sodium 4-{[4-(2-Amino4-{3-[(methoxyacetyl)amino]phenyl}-1-methyl-5-oxo-4,5-dihydro-1H-imidazol-4-yl)piperidin-1-yl]carbonyl}benzoate]	0.01 to 1	> 250 °C	–
COCC(=O)Nc1cccc(C2(C3CCN(C(=O)C4CC4)CC3)N=C(N)N(C)C2=O)c1 (stereo not drawn) [Example 37]	0.01 to 1	> 130 °C (dec.)	–
COCC(=O)Nc1cccc(C2(C3CCN(C(=O)CC4CCCCC4)CC3)N=C(N)N(C)C2=O)c1 (stereo not drawn) [Example 38]	0.01 to 1	131 to 133 °C	–
COCC(=O)Nc1cccc(C2(C3CCN(C(=O)C4CCCC4)CC3)N=C(N)N(C)C2=O)c1 (stereo not drawn) [Example 40]	0.01 to 1	134 to 136 °C	–
COCC(=O)Nc1cccc(C2(C3CCN(C(=O)C(C)C)CC3)N=C(N)N(C)C2=O)c1 (stereo not drawn) [Example 42]	0.01 to 1	145 to 148 °C	–
CCC(CC)C(=O)N1CCC(C2(c3cccc(NC(=O)COC)c3)N=C(N)N(C)C2=O)CC1 (stereo not drawn) [Example 43]	1.01 to 3	102 to 105 °C	–
COCC(=O)Nc1cccc(C2(C3CCN(C(=O)C4CCC(=O)O4)CC3)N=C(N)N(C)C2=O)c1 (stereo not drawn) [Example 44]	0.01 to 1	118 to 120 °C	–
COCC(=O)Nc1cccc(C2(C3CCN(C(=O)c4ccccc4Cl)CC3)N=C(N)N(C)C2=O)c1 (stereo not drawn) [Example 45]	0.01 to 1	130 to 133 °C	–
COCC(=O)Nc1cccc(C2(C3CCN(C(=O)c4cc5ccccc5o4)CC3)N=C(N)N(C)C2=O)c1 (stereo not drawn) [Example 46]	0.01 to 1	139 to 142 °C	–
C#CCCC(=O)N1CCC(C2(c3cccc(NC(=O)COC)c3)N=C(N)N(C)C2=O)CC1 (stereo not drawn) [Example 47]	> 3	135 to 138 °C	–
COCC(=O)Nc1cccc(C2(C3CCN(C(=O)CCC(C)C)CC3)N=C(N)N(C)C2=O)c1 (stereo not drawn) [Example 49]	0.01 to 1	105 to 107 °C	–
COCC(=O)Nc1cccc(C2(C3CCN(C(=O)c4cccc(F)c4)CC3)N=C(N)N(C)C2=O)c1 (stereo not drawn) [Example 50]	0.01 to 1	150 to 153 °C	–
COCC(=O)Nc1cccc(C2(C3CCN(C(=O)c4ccc5c(c4)OCO5)CC3)N=C(N)N(C)C2=O)c1 (stereo not drawn) [Example 51]	0.01 to 1	> 160 °C (dec.)	–
COCC(=O)Nc1cccc(C2(C3CCN(C(=O)c4ccc(C#N)cc4)CC3)N=C(N)N(C)C2=O)c1 (stereo not drawn) [Example 52]	0.01 to 1	160 to 164 °C	–
COCC(=O)Nc1cccc(C2(C3CCN(C(=O)c4ccoc4)CC3)N=C(N)N(C)C2=O)c1 (stereo not drawn) [Example 53]	0.01 to 1	140 to 142 °C	–
COCC(=O)Nc1cccc(C2(C3CCN(C(=O)c4ccc5ccccc5c4)CC3)N=C(N)N(C)C2=O)c1 (stereo not drawn) [Example 54]	0.01 to 1	168 to 170 °C	–
COCC(=O)Nc1cccc(C2(C3CCN(C(=O)c4cccs4)CC3)N=C(N)N(C)C2=O)c1 (stereo not drawn) [Example 55]	0.01 to 1	148 to 152 °C	–
COCC(=O)Nc1cccc(C2(C3CCN(C(=O)COC)CC3)N=C(N)N(C)C2=O)c1 (stereo not drawn) [Example 56]	1.01 to 3	79 to 80 °C	–
COCC(=O)Nc1cccc(C2(C3CCN(C(=O)C(F)(F)F)CC3)N=C(N)N(C)C2=O)c1 (stereo not drawn) [Example 58]	0.01 to 1	120 to 122 °C	–
